Where two headings read alike, the source gives them in different places. Numbered stars: 1 amine (or outer) side, 2 acyl side, 3 side chain; on linkers, the order of the positions; unused ones are H or OH. Bridge positions count the residues as written; N and C are the ends. Peptide text beside a SMILES is read from it. Phenylene(1,4-NHCOCH2)2 = O=C(C[*:1])Nc1ccc(NC(=O)C[*:2])cc1
Tests used:
[1] = target: PD-L1:PD-1 binding (Homo sapiens, UniProt Q9NZQ7); conditions: competition ELISA, n=2
[2] = target: T1, PD-L1 (Homo sapiens, UniProt Q9NZQ7); conditions: TR-FRET
[3] = target: T1, PD-L1; conditions: SPR
[4] = target: T1, PD-L1; conditions: analytical SEC and TR-FRET experiments
[5] = target: T2, beta-catenin (Homo sapiens, UniProt P35222); test: SPR binding of Helicons to immobilized beta-catenin
T2 construct: made in house; host or cells: E. coli BL21 (DE3) pLysS
T2 sequence (P35222 134-665): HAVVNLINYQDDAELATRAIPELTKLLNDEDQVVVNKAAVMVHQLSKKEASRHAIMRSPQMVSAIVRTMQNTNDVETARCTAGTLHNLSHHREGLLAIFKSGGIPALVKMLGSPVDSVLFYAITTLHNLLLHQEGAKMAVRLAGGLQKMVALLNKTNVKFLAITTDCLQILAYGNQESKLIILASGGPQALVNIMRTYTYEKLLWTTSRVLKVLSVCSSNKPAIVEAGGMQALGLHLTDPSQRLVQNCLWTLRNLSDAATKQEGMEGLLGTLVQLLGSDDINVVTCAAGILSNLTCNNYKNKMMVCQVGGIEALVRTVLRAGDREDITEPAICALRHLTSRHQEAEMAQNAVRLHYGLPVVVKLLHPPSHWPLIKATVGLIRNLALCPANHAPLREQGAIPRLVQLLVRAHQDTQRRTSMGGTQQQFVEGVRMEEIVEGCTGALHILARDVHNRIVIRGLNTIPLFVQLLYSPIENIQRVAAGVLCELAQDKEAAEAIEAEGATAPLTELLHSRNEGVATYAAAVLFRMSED

[6] = target: T3, beta-catenin (Homo sapiens, UniProt P35222); test: Competition FP, beta-catenin vs Axin-derived Helicon probe; type: binding
T3 construct: 10 nM full-length β-catenin (Uniprot ID P35222); 6×His-thrombin-T7-TEV (N); made in house; host or cells: E. coli BL21 (DE3) pLysS

[7] = target: T3, beta-catenin; test: Competition FP, beta-catenin vs beta-catenin-binding domain of TCF4; conditions: read-out: IC50 (μM, TCF)
[8] = target: T4, β-catenin:MDM2 complex (Homo sapiens, UniProt P35222+Q00987); test: FP analysis of the β-catenin:MDM2 complex; type: biochemical; conditions: read-out: EC50 of cooperative interaction between MDM2 and the Armadillo domain of β-catenin
T4 construct: 6×His-yBBr-TEV (N); 6×His-TEV (N, cleaved yes); made in house; host or cells: E. coli BL21 (DE3) pLysS (beta-catenin); E. coli BL21 (DE3) (MDM2)

[9] = target: T5, β-catenin:MDM4 complex (Homo sapiens, UniProt O15151+P35222, C17S); test: FP analysis of the β-catenin:MDM4 complex; type: biochemical; conditions: direct FP assay
T5 construct: 6×His-yBBr-TEV (N); 6×His-yBBr-3C (N, cleaved yes); made in house; host or cells: E. coli BL21 (DE3) pLysS (beta-catenin); E. coli BL21 (DE3) (MDM4)
T5 sequence (P35222 134-665): T2 sequence (P35222 134-665)
T5 sequence (O15151 14-111 C17S): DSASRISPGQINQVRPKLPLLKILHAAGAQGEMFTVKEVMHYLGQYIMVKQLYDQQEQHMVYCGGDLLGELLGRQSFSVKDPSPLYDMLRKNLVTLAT

[10] = target: T6, MDM4 (Homo sapiens, UniProt O15151, C17S); test: Direct FP ternary complex formation, fluorescent MDM4 and beta-catenin; type: biochemical; conditions: fluorescent p53-binding domain of MDM4
T6 construct: 6×His-yBBr-3C (N, cleaved yes); made in house; host or cells: E. coli BL21 (DE3)
T6 sequence (O15151 14-111 C17S): T5 sequence (O15151 14-111 C17S)

[11] = target: T7, MDM2 and β-catenin (Homo sapiens, UniProt P35222+Q00987); test: Direct FP ternary complex formation, fluorescent MDM2 and beta-catenin; type: biochemical; conditions: fluorescent p53-binding domain of MDM2
T7 construct: 6×His-TEV (N, cleaved yes); 6×His-yBBr-TEV (N); made in house; host or cells: E. coli BL21 (DE3) (MDM2); E. coli BL21 (DE3) pLysS (β-catenin)

[12] = target: T8, VHL-ELOBC (Homo sapiens, UniProt P40337); test: Competition FP with VHL-binding fluorescent probe HXC78; conditions: n=3
T8 construct: VHL (Uniprot ID: P40337, residues 54-213) with an N-terminal 6×His-TEV tag; 6×His-TEV (N); made in house; host or cells: E. coli BL21 (DE3)

[13] = target: CDK2 (Homo sapiens, UniProt P24941); test: CDK2 kinase activity, luminescence-based assay that detects ADP production; type: biochemical
Excerpt: Among other things, two distinct clusters of Helicons that bound both CDK2 and CDK2 in complex with its partner CyclinE1, but not to CDK1 or CDK1 in complex with its partner CyclinA2 (C51 and C52). […] In some embodiments, one or more (e.g., 1, 2 or 3) or all residues to the N-terminus side of X^4 are absent. In some embodiments, one or more (e.g., 1, 2 or 3) or all residues to the C-terminus side of X^11 are absent.

[14] = target: T8, VHL-ELOBC; test: Naive Library Presenter Screening (phage, NGS), VHL-ELOBC; type: binding; conditions: VHL target concentration 1000 nM

Cc1cc(CN[C@H](CO)C(=O)O)c(OCc2cccc(C#N)c2)cc1OCc1cccc(-c2ccc3c(c2)OCCO3)c1C [BMS-1001]
inhibition of PD-L1:PD-1 binding [1]: inhibits PD-L1:PD-1 binding
induction of PD-L1 dimerization in solution [2]: induce PD-L1 dimerization
competition with PD-1 for binding to PD-L1 [3]: compete more potently
PD-L1 dimerization [4]: Evidence of PD-L1 dimerization

CC[C@H](C)[C@@H]1NC(=O)[C@H](C)NC(=O)[C@H](C)NC(=O)[C@H](Cc2c[nH]c3ccccc23)NC(=O)[C@H](CCC(=O)O)NC(=O)[C@@H](NC(=O)[C@H](CC(C)C)NC(=O)[C@H](CCC(=O)O)NC(=O)[C@H](CO)NC(=O)[C@H](C)NC(=O)[C@@H]2CCCN2C(=O)[C@H](CC(=O)O)NC(C)=O)CSCC(=O)Nc2ccc(cc2)NC(=O)CSC[C@@H](C(=O)N[C@@H](CC(=O)O)C(=O)N[C@@H](CC(C)C)C(=O)N[C@H](C(N)=O)C(C)C)NC(=O)[C@H](Cc2c[nH]cn2)NC1=O [FP01822]
Kd [5]: 3 µM
IC50 [6]: 3700 nM

CC[C@H](C)[C@H](NC(=O)[C@H](CS)NC(=O)[C@H](CC(=O)O)NC(=O)[C@H](CC(=O)O)NC(=O)[C@H](CCC(N)=O)NC(=O)[C@H](C)NC(=O)[C@@H]1CCCN1C(=O)[C@H](CC(=O)O)NC(C)=O)C(=O)N[C@@H](CC(C)C)C(=O)N[C@@H](C)C(=O)N[C@@H](C)C(=O)N[C@@H](Cc1c[nH]cn1)C(=O)N[C@H](C(=O)N[C@@H](CS)C(=O)N[C@@H](C)C(=O)N[C@@H](CC(C)C)C(=O)N[C@@H](Cc1c[nH]c2ccccc12)C(N)=O)C(C)C [FP49433]
Kd ([5]; SPR, beta-catenin, read-out: KD (μM, SPR)): > 10 µM
IC50 [7]: > 10 µM

CC[C@H](C)[C@H](NC(=O)[C@H](C)NC(=O)[C@H](CCC(N)=O)NC(=O)[C@H](CCC(N)=O)NC(=O)[C@H](CCC(=O)O)NC(=O)[C@H](CCSC)NC(=O)[C@@H]1CCCN1C(C)=O)C(=O)N[C@H]1CSCC(=O)Nc2ccc(cc2)NC(=O)CSC[C@@H](C(=O)N[C@@H](CC(C)C)C(=O)N[C@@H](C)C(=O)N[C@@H](CC(=O)O)C(=O)N[C@@H](CC(=O)O)C(=O)N[C@@H](Cc2c[nH]c3ccccc23)C(=O)N[C@H](C(N)=O)[C@@H](C)O)NC(=O)[C@H](CCSC)NC(=O)[C@H](Cc2c[nH]c3ccccc23)NC(=O)[C@H](C)NC(=O)[C@H](C)NC(=O)[C@H](CCC(N)=O)NC(=O)[C@H](Cc2ccccc2)NC1=O [Helicon H329] (Ac-PMEQQAICFQAAWMCLADDWT-NH2; linker 8-15 via Phenylene(1,4-NHCOCH2)2)
EC50 [8]: 10 to 100 nM
promotion of interaction between MDM4 and β-catenin [9]: not between MDM4 and β-catenin

CC(=O)N1CCC[C@H]1C(=O)N[C@@H](Cc1c[nH]c2ccccc12)C(=O)N[C@@H](CCCCN)C(=O)N[C@@H](Cc1ccc(O)cc1)C(=O)N[C@@H](CCC(=O)O)C(=O)N[C@@H](CCC(N)=O)C(=O)N[C@H](C(=O)N[C@H]1CSCC(=O)Nc2ccc(cc2)NC(=O)CSC[C@@H](C(=O)N[C@@H](CC(C)C)C(=O)N[C@@H](CO)C(=O)N[C@@H](CC(=O)O)C(=O)N[C@@H](CC(=O)O)C(=O)N[C@@H](Cc2c[nH]c3ccccc23)C(=O)N[C@@H](CC(=O)O)C(N)=O)NC(=O)[C@H](CCC(N)=O)NC(=O)[C@H](Cc2c[nH]c3ccccc23)NC(=O)[C@H](C)NC(=O)[C@H](C)NC(=O)[C@H](CCC(N)=O)NC(=O)[C@H](Cc2ccc(O)cc2)NC1=O)C(C)C [Helicon H330]
ternary complex formation with MDM4 [10]: did not occur

CC[C@H](C)[C@H](NC(=O)[C@@H]1CSCC(=O)Nc2ccc(cc2)NC(=O)CSC[C@H](NC(=O)[C@H](CC(=O)O)NC(=O)[C@H](CC(N)=O)NC(=O)[C@H](C)NC(=O)[C@H](C)NC(=O)[C@H](CO)NC(=O)[C@@H](NC(=O)[C@@H]2CCCN2C(C)=O)[C@@H](C)CC)C(=O)N[C@@H](Cc2ccccc2)C(=O)N[C@@H](CCCCN)C(=O)N[C@@H](C)C(=O)N[C@@H](C)C(=O)N[C@@H](Cc2c[nH]c3ccccc23)C(=O)N[C@@H](CCC(N)=O)C(=O)N1)C(=O)N[C@H](C(=O)N[C@@H](Cc1c[nH]c2ccccc12)C(=O)N[C@@H](CC(C)C)C(=O)N[C@@H](Cc1c[nH]cn1)C(=O)N[C@@H](CCC(N)=O)C(N)=O)[C@@H](C)CC [Helicon H332]
ternary complex formation, MDM2 and β-catenin [11]: could promote ternary complex formation
ternary complex formation with MDM4 [10]: did not occur
EC50 [8]: 10 to 100 nM
promotion of interaction between MDM4 and β-catenin [9]: not between MDM4 and β-catenin

CC(=O)N1CCC[C@H]1C(=O)N[C@@H](CC(N)=O)C(=O)N[C@@H](CC(C)C)C(=O)N[C@H](C(=O)NCC(=O)N[C@@H](C)C(=O)N[C@@H](CC(=O)O)C(=O)N[C@H]1CSCC(=O)Nc2ccc(cc2)NC(=O)CSC[C@@H](C(=O)N[C@@H](CC(C)C)C(=O)N[C@@H](CCC(N)=O)C(=O)N[C@@H](Cc2ccccc2)C(=O)N[C@@H](CC(C)C)C(=O)N[C@@H](Cc2c[nH]c3ccccc23)C(=O)N[C@@H](CC(=O)O)C(N)=O)NC(=O)[C@H](CCC(N)=O)NC(=O)[C@H](Cc2c[nH]c3ccccc23)NC(=O)[C@H](C)NC(=O)[C@H](C)NC(=O)[C@@H]2CCCN2C(=O)[C@H](Cc2ccccc2)NC1=O)[C@@H](C)O [Helicon H334]
ternary complex formation, MDM2 and β-catenin [11]: could promote ternary complex formation
ternary complex formation with MDM4 [10]: did not occur
EC50 [8]: 10 to 100 nM
promotion of interaction between MDM4 and β-catenin [9]: not between MDM4 and β-catenin

Cc1ncsc1-c1ccc(CNC(=O)[C@@H]2C[C@@H](O)CN2C(=O)[C@@H](NC(=O)C2(C#N)CC2)C(C)(C)C)cc1 [VH298, (2S,4R)-1-((S)-2-(1-Cyanocyclopropanecarboxamido)-3,3-dimethylbutanoyl)-4-hydroxy-N-(4-(4-methylthiazol-5-yl)benzyl)pyrrolidine-2-carboxamide]
competition with HXC78 for binding VHL-ELOBC [12]: potently competes

Ac-WWVCAIAAIECSD-NH2 [FP33215]
inhibition of the kinase activity of CDK2 [13]: neither FP19711 nor FP33215 appeared to inhibit

DPAWWYCLDAAYDCDHT
interaction data at Target Concentration 1000 [14]: 0

DPAWYACMDAARVCDRT
interaction data at Target Concentration 1000 [14]: 0

From patent publication US20240376151A1, “STAPLED PEPTIDES AND METHODS THEREOF” (FOG PHARMACEUTICALS, INC., priority 2022, published 2024)
